Reference: US9090593B2, “Bicyclic compounds as Pim inhibitors” (AMGEN INC., priority 2010, dated 2015)
Where two headings read alike, the source gives them in different places.

What was measured:
[1] = target: T1, full length recombinant Pim-1 protein (Homo sapiens, UniProt P11309); assay: Pim-1 enzyme assay (HTRF, phosphorylation of biotinylated-BAD (S112) peptide); type: biochemical; conditions: read-out: Pim_1_IC50
T1 construct: by full length recombinant Pim-1, Pim-2, or Pim-3 protein; hexahistidine tag followed by a thrombin cleavage site (N); made in house; host or cells: Sf9 (baculovirus) or E. coli (pET28)
T1 sequence (P11309 whole entry): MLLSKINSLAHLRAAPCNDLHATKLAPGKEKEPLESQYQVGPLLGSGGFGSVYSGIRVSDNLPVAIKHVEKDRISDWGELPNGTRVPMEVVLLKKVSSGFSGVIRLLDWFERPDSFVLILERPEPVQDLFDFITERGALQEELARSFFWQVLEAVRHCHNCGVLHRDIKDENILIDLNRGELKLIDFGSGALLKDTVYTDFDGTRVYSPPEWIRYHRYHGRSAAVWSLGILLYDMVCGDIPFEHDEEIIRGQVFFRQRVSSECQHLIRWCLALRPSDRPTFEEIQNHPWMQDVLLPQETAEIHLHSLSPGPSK
How it was run: (§1)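 HTRF read-out: Eu-labelled anti-phospho-BAD (S112) antibody plus streptavidin-APC detect phosphorylated biotin-BAD peptide. Enzymes were full-length recombinant human Pim-1 and Pim-2; buffer 60 mM Hepes pH 7.0, 0.05% BSA, 2 mM DTT; reactions quenched with 3 mM EDTA. Percent-of-control data fitted to a 4-parameter logistic for IC50.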

[2] = target: T2, full length recombinant Pim-2 protein (Homo sapiens, UniProt Q9P1W9); assay: Pim-2 enzyme assay (HTRF, phosphorylation of biotinylated-BAD (S112) peptide); type: biochemical; conditions: read-out: Pim2_IC50
T2 construct: by full length recombinant Pim-1, Pim-2, or Pim-3 protein; hexahistidine tag followed by a thrombin cleavage site (N); made in house; host or cells: Sf9 (baculovirus) or E. coli (pET28)
T2 sequence (Q9P1W9 whole entry): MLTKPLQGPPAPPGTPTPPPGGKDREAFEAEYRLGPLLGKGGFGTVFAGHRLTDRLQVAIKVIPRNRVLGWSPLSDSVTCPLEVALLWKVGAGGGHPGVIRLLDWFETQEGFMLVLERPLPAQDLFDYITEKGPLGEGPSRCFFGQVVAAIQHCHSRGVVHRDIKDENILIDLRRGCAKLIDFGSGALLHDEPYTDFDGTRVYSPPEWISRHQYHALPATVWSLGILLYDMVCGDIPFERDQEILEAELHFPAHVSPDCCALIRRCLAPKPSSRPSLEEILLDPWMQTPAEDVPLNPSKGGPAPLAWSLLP
How it was run: as §1

[3] = target: T3, Pim-1 stably transfected into the U2OS human osteogenic sarcoma line (Homo sapiens, UniProt P11309); assay: Pim cell assay, phospho-BAD normalized against total BAD, U2OS stably transfected with Pim-1; type: cell-based
T3 construct: expressed in transfected cells; host or cells: U2OS human osteogenic sarcoma line
T3 sequence (P11309 whole entry): as the sequence (P11309 whole entry) above
Description: (§2) The cell lines used in the assay were generated by the stable transfection of either Pim-1 or Pim-2 into the U2OS human osteogenic sarcoma line. The assay for determination of the Pim activity in the engineered U2OS cell lines measures levels of phospho-BAD normalized against total BAD protein levels. It was conducted as follows:
(§3) The adherent cells were dissociated from the flasks using non-enzymatic cell dissociation solution (Sigma # C5914). […] The cells were then incubated overnight at 37° C., 5% CO2.
(§4) In addition to the 10-point dosing curve of the test compound, DMSO alone was run as the high control.
(§5) This dilution in DMSO was then diluted again into cell growth medium. Aliquots (12 uL) of the compound diluted in growth medium were then transferred to the appropriate wells of the 96-well plates containing cells to yield a final DMSO concentration of 0.3%.
(§6) The cell plates containing lysis buffer were then immediately stored at −70° C.
(§7) These prepared lysates were then assayed for phospho and total BAD according to the manufacturer's protocols (Meso Scale Diagnostics, Cat# K15103C-3 & # K15103D-3). The plates were read on the MSD Sector Imager 6000, and results were calculated according to the assay protocols ((% Phosphoprotein=((2×Phospho signal)/(Phospho signal+Total signal))×100)).

[4] = target: T4, Pim-2 stably transfected into the U2OS human osteogenic sarcoma line (Homo sapiens, UniProt Q9P1W9); assay: Pim cell assay, phospho-BAD normalized against total BAD, U2OS stably transfected with Pim-2; type: cell-based
T4 construct: expressed in transfected cells; host or cells: U2OS human osteogenic sarcoma line
T4 sequence (Q9P1W9 whole entry): as the sequence (Q9P1W9 whole entry) above
Description: as §2, §3, §4, §5, §6, §7

[5] = U2OS stably transfected with Pim-1, phospho-BAD normalized against total BAD, 29 min incubation, read-out: Pim1_Cell_IC50_
[6] = U2OS stably transfected with Pim-2, phospho-BAD normalized against total BAD, 29 min incubation, read-out: Pim2_Cell_IC50_
[7] = U2OS cells stably transfected with Pim-1, phospho-BAD, high dose […], read-out: Pim1_Cell_IC50
[8] = U2OS cells stably transfected with Pim-2, phospho-BAD, high dose […], read-out: Pim2_Cell_IC50

SMILES	IC50 [1] [nM]	IC50 [2] [nM]	IC50 [3, 5] [nM]	IC50 [4, 6] [µM]	also measured
CC1CCNCC1Oc1cncc(-c2n[nH]c3ccc(-c4c(F)cccc4F)cc23)n1 (single isomer, unassigned) [Example 423]	17	194	1660	> 31.6	
CC1(C)CNCCC1Oc1cncc(-c2n[nH]c3ccc(-c4c(F)cccc4F)cc23)n1 (single isomer, unassigned) [Example 432]	20	114	2410	> 31.6	
CC1(C)CNCCC1Oc1cncc(-c2n[nH]c3ccc(-c4c(F)cccc4F)cc23)n1 (single isomer, unassigned) [Example 433]	2	22	801	> 10	
CC(C)Oc1cncc(-c2ccc3[nH]nc(-c4cncc(N5CCC(N)CC5)n4)c3c2)n1 [Example 5, 1-(6-(5-(6-isopropoxypyrazin-2-yl)-1H-indazol-3-yl)pyrazin-2-yl)piperidin-4-amine]					IC50 ([2]; enzyme assay, Pim-2): 16 nM; IC50 [3, 7]: 45 nM; IC50 [4, 8]: 5.44 µM
NC1CCN(c2cncc(-c3n[nH]c4ccc(-c5cnc6[nH]nc(C(F)(F)F)c6c5)cc34)n2)CC1 [Example 6, 1-(6-(5-(3-(trifluoromethyl)-1H-pyrazolo[3,4-b]pyridin-5-yl)-1H-indazol-3-yl)pyrazin-2-yl)piperidin-4-amine]					IC50 ([1]; enzyme assay, Pim-1): 1 nM; IC50 ([2]; enzyme assay, Pim-2): 35 nM; IC50 [3, 7]: 1880 nM; IC50 [4, 8]: > 31.6 µM
COc1cncc(-c2ccc3[nH]nc(-c4ccnc(N5CCC(N)CC5)n4)c3c2)c1 [Example 30, 1-(4-(5-(5-Methoxypyridin-3-yl)-1H-indazol-3-yl)pyrimidin-2-yl)piperidin-4-amine]					IC50 ([1]; enzyme assay, Pim-1): 1 nM; IC50 ([2]; enzyme assay, Pim-2): 7 nM; IC50 ([3]; read-out: Pim1_Cell_IC50): 89 nM; IC50 ([4]; read-out: Pim2_Cell_IC50): 2.24 µM
Nc1cnnc(-c2ccc3[nH]nc(-c4cncc(N5CCC(N)CC5)n4)c3c2)c1 [Example 104, 6-(3-(6-(4-amino-1-piperidinyl)-2-pyrazinyl)-1H-indazol-5-yl)-4-pyridazinamine]					IC50 ([2]; enzyme assay, Pim-2): 1 nM; IC50 [3, 7]: 1920 nM; IC50 [4, 8]: > 31.6 µM
NC1CCN(c2cncc(-c3n[nH]c4ccc(-c5cncc(C6CC6)n5)cc34)n2)CC1 [Example 109, 1-(6-(5-(6-cyclopropyl-2-pyrazinyl)-1H-indazol-3-yl)-2-pyrazinyl)-4-piperidinamine]					IC50 ([2]; enzyme assay, Pim-2): 2 nM; IC50 [4, 8]: 1.73 µM
c1cc2[nH]nc(-c3cncc(N[C@@H]4CCCNC4)n3)c2cc1-c1cncc(C2CC2)n1 [Example 243, 6-(5-(6-cyclopropyl-2-pyrazinyl)-1H-indazol-3-yl)-N-((3R)-3-piperidinyl)-2-pyrazinamine]		8	99	5.59	
O=c1cc(-c2c[nH]c3ccc(-c4c(F)cccc4F)cc23)nc(N[C@@H]2CCCNC2)[nH]1 [Example 279, (R)-6-(5-(2,6-difluorophenyl)-1H-indol-3-yl)-2-(piperidin-3-ylamino)pyrimidin-4(3H)-one]	1		2400	> 31.6	
c1cc(OC2CCC2)nc(-c2ccc3[nH]cc(-c4cncc(O[C@@H]5CCCNC5)n4)c3c2)c1 [Example 301]	13	122	2540		
c1cc2[nH]cc(-c3cncc(O[C@@H]4CCCNC4)n3)c2cc1-c1cncc(N2CCCC2)n1 [Example 302]	9	189	995		
Cc1nccn1-c1cccc(-c2ccc3[nH]cc(-c4cncc(O[C@@H]5CCCNC5)n4)c3c2)n1 [Example 305]	7	127	754		
Cc1ccn(-c2cccc(-c3ccc4[nH]cc(-c5cncc(O[C@@H]6CCCNC6)n5)c4c3)n2)n1 [Example 307]	6	114	1600		
CC(C)n1cc(-c2ccc3[nH]cc(-c4cncc(O[C@@H]5CCCNC5)n4)c3c2)cn1 [Example 308, 5-(1-(1-methylethyl)-1H-pyrazol-4-yl)-3-(6-((3R)-3-piperidinyloxy)-2-pyrazinyl)-1H-indole]	8	76	160		
COc1ccc(-c2ccc3[nH]cc(-c4cncc(O[C@@H]5CCCNC5)n4)c3c2)cn1 [Example 310]	6	41	295		
COc1cccc(-c2ccc3[nH]cc(-c4cncc(O[C@@H]5CCCNC5)n4)c3c2)c1 [Example 320]	6	30	592		
c1cc(OCC2CC2)ncc1-c1ccc2[nH]cc(-c3cncc(O[C@@H]4CCCNC4)n3)c2c1 [Example 323]	8	67	1310		
COc1c(C)cc(-c2ccc3[nH]cc(-c4cncc(O[C@@H]5CCCNC5)n4)c3c2)cc1C [Example 331]	8	111	1280		
c1cc2[nH]nc(-c3cncc(NC4CCNCC4)n3)c2cc1-c1cncc(C2CC2)n1 [Example 369, 6-(5-(6-cyclopropyl-2-pyrazinyl)-1H-indazol-3-yl)-N-4-piperidinyl-2-pyrazinamine]		1	83	3.7	
CC1(Oc2cncc(-c3n[nH]c4ccc(-c5c(F)cccc5F)cc34)n2)CCCNC1 (stereo not drawn) [Example 417]	15	335	1480		
NC1CCN(c2cncc(-c3n[nH]c4ccc(-c5cc6[nH]ccc6cn5)cc34)n2)CC1 [Example 504]	5	127	7560		
NC1CCN(c2cncc(-c3n[nH]c4ccc(-c5cncc(NC6CC6)n5)cc34)n2)CC1 [Example 509]		6	51	4.23	
c1cc2[nH]cc(-c3cncc(O[C@@H]4CCCNC4)n3)c2cc1-c1csc(N2CCCC2)n1 [Example 553]	77	520			
CN(C)C(=O)c1ccc2[nH]nc(-c3ccnc(O[C@@H]4CCCNC4)n3)c2c1 [Example 557]	> 1000	> 1000			
CN(C)C(=O)c1ccc2[nH]nc(-c3ccnc(NC4CCNCC4)n3)c2c1 [Example 561]	> 1000	> 1000			
COc1cc(N2CCC(N)CC2)nc(-c2c[nH]c3ccc(-c4c(F)cccc4F)cc23)n1 [Example 563]	87	143			

The next lines start with results.

IC50 [1] [nM]	IC50 [2] [nM]	IC50 [3, 5] [nM]	IC50 [4, 6] [µM]	SMILES	also measured
7	60	1540		Fc1cccc(F)c1-c1ccc2[nH]nc(-c3cncc(SC4CCCNC4)n3)c2c1 (single isomer, unassigned) [Example 414]	
9	31	1310		CC1(C)CC1c1ccc2[nH]cc(-c3cncc(O[C@@H]4CCCNC4)n3)c2c1 (stereo partly drawn) [Example 312]	
	2	76	3.68	NC1CCN(c2cncc(-c3n[nH]c4ccc(-c5cncc(C6CC6)n5)cc34)n2)CC1 [Example 503, 1-(6-(5-(6-cyclopropyl-2-pyrazinyl)-1H-indazol-3-yl)-2-pyrazinyl)-4-piperidinamine]	
	1	1370	> 31.6	Nc1cncc(-c2ccc3[nH]nc(-c4cncc(N5CCC(N)CC5)n4)c3c2)n1 [Example 508]	
30	58			O=c1cc(-c2n[nH]c3ccc(-c4c(F)cccc4F)cc23)nc(N2CC[C@H](O)C2)[nH]1 [Example 543]	
> 1000	> 1000			CN(C)C(=O)c1ccc2[nH]nc(-c3cncc(O[C@@H]4CCCNC4)n3)c2c1 [Example 556]	
	1	202	8.12	COC(=O)c1ccc2[nH]nc(-c3cncc(NC4CCNCC4)n3)c2c1 [Example 559]	
	5	394	4.78	CC(C)OC(=O)c1ccc2[nH]nc(-c3cncc(NC4CCNCC4)n3)c2c1 [Example 560]	
> 1000	> 1000			COc1cc(-c2c[nH]c3ccc(-c4c(F)cccc4F)cc23)nc(N2CCOCC2)n1 [Example 562]	
